Consider two molecules from publication PMC9598656, “In Vitro Activity of Robenidine Analogues NCL259 and NCL265 against Gram-Negative Pathogens” (Antibiotics, 2022).

Each structure is given as a SMILES string. Converted amounts (≈) assume the structure as drawn.

Format in all cases: cell-based
Data set [1] has as its system sheep red blood cells (SRBCs). The data set can be described thus: Hemolysis assay. The settings on record: 1 h. Here is the method: The haemolytic activity of the compounds was determined using 1% sheep red blood cells (SRBCs), as described previously. […]. After incubation at 37 °C with shaking at 100 rpm for 1 h, the trays were centrifuged at 1000× g for 3 min and 100 μL of supernatant from each well was transferred into a new 96-well tray. Absorbance was measured at A450nm on a Multiskan Ascent 354 Spectrophotometer (Labsystems) and plotted against each dilution. The haemolytic titre (HC50) of each compound was determined as the reciprocal of the dilution at which 50% of SRBCs were lysed at A450nm.

Data set [2] has as its system MCF-7 (human mammary gland adenocarcinoma cell line). The data set can be described thus: In vitro cytotoxicity, WST-1. As to conditions: MCF7, 24 h. The source says: (§1) Potential toxicity of NCL259 and NCL265 to mammalian cells relative to the parent compound (NCL812) was examined using Caco-2 (human colorectal adenocarcinoma cell line), HEL 299 (non-cancerous human lung fibroblast cell line), Hep G2 (human hepatocellular carcinoma cell line), MCF-7 (human mammary gland adenocarcinoma cell line), MDBK (normal Madin–Darby bovine kidney cell line) and Vero (normal adult African green monkey cell line), essentially as described previously. Toxicity to the cell lines was performed using serial two-fold dilutions of each compound from 128 to 1 μg/mL in duplicates in flat bottom 96 well tissue culture trays (Sarstedt 83.3924) containing approximately 2 × 10^4 cells per well in antibiotic-free Dulbecco’s Modified Eagle’s Medium (DMEM; Gibco Cat No: 12430; Thermo Fisher Scientific, Scoresby, VIC, Australia) consisting of 10% (v/v) fetal bovine serum at 37 °C, 5% CO2 for 24 h. Duplicate wells containing ampicillin at 128 to 1 μg/mL were used as controls. Thereafter, 10% (v/v) of the WST-1 cell proliferation assay reagent (Cat No: 05015944001; Roche Life Science, North Ryde, NSW, Australia) was added to each well, the trays were further incubated at 37 °C, 5% CO2 for 1 h and absorbance read at A450nm on a Multiskan Ascent 354 Spectrophotometer (Labsystems, Lilydale, VIC, Australia). The inhibitory concentration of each compound was determined as the half maximal inhibitory concentration (IC50) at A450nm.

For data set [3], the system named is Vero (normal adult African green monkey cell line). The data set can be described thus: In vitro cytotoxicity, WST-1. The settings on record: Chlorocebus sabaeus, 24 h.
Description: as §1
On the technique in general: Formazan colour is commonly taken as a measure of viable cells.

Data set [4] relates to Hep G2 (human hepatocellular carcinoma cell line). The data set can be described thus: In vitro cytotoxicity, WST-1. The settings on record: HepG2, 24 h.
Description: as §1

Data set [5] deals with HEL 299 (non-cancerous human lung fibroblast cell line). The data set can be described thus: In vitro cytotoxicity, WST-1. As to conditions: HEL 299, 24 h.
Description: as §1

Data set [6] has as its system MDBK (normal Madin–Darby bovine kidney cell line). The data set can be described thus: In vitro cytotoxicity, WST-1. As to conditions: Bos taurus, 24 h.
Description: as §1

Data set [7] has as its system Caco-2 (human colorectal adenocarcinoma cell line). The data set can be described thus: In vitro cytotoxicity, WST-1. As to conditions: Caco-2, 24 h.
Where [8] appears, read: first of two independent experiments.
Setting [9] is: second of two independent experiments.

For orientation: IC50 means the midpoint of a concentration-inhibition curve. For the molecule `CC1(C)S[C@@H]2[C@H](NC(=O)[C@H](N)c3ccccc3)C(=O)N2[C@H]1C(=O)O` [Ampicillin, reference compound], the HC50 in data set [1] (1% SRBC, first of two independent experiments) is given as >128, >128 μg/mL; in data set [1] (1% SRBC, second of two independent experiments) it was >128, >128 μg/mL. Also, the concentration for half-maximal inhibition (IC50) in data set [2] (setting [8]), in data set [2] (setting [9]), in data set [3] (setting [8]), in data set [3] (setting [9]), in data set [4] (setting [8]) and in data set [4] (setting [9]) was over 128 µg/mL each time. Moreover, the concentration for half-maximal inhibition (IC50) in data set [5] (setting [8]), in data set [5] (setting [9]), in data set [6] (setting [8]) and in data set [6] (setting [9]) was over 128 µg/mL throughout.

Regarding `N=C(N/N=C/c1ccc(Cl)cc1)N/N=C/c1ccc(Cl)cc1` [NCL812, Robenidine], the IC50 in data set [7] (setting [8]) worked out at 8 µg/mL (≈ 23.9 µM); in data set [7] (setting [9]), 12 µg/mL (≈ 35.9 µM); in data set [2] (setting [8]), 8 µg/mL (≈ 23.9 µM); in data set [2] (setting [9]), 12 µg/mL (≈ 35.9 µM); in data set [3] (setting [8]), 8 µg/mL (≈ 23.9 µM); in data set [3] (setting [9]) it was 4 µg/mL (≈ 12 µM). Also, the IC50 worked out at 6 µg/mL (≈ 18 µM) in data set [4] (setting [8]); 8 µg/mL (≈ 23.9 µM) in data set [4] (setting [9]); 8 µg/mL (≈ 23.9 µM) in data set [5] (setting [8]); 6 µg/mL (≈ 18 µM) in data set [5] (setting [9]); 8 µg/mL (≈ 23.9 µM) in data set [6] (setting [8]); 12 µg/mL (≈ 35.9 µM) in data set [6] (setting [9]). In addition, in data set [1] (sheep), the HC50 is given as 32, 32 μg/mL.
